Assay results: PubChem BioAssay AID2060907 (Molecular Pharmacology Branch, DTP, NCI, 2025)
One block for each molecule: values may come before it.

Test system: 388556-164-R-J1-PDC complex spheroid viability
Assay: Anticancer human tumor 388556-164-R-J1-PDC patient-derived colon adenocarcinoma cell line growth inhibition [RAS]
Conditions: for viability, T/C: stronger effect = lower value
Outline: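 Agents were tested in combination matrices in half-log decrements from a top concentration at or near clinical Cmax (10 microM if undetermined). Targets were multi-cell spheroids of tumour lines plus HUVEC and MSC stromal cells.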
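Note: spheroids exposed to compound for 7 days before readout.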
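Throughout, for viability, T/C: 100% = DMSO vehicle control luminescence.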

- IC50 (curve of first compound, second compound 0.000949 µM): 132 nM
- IC50 (curve of first compound, second compound 0.003 µM): 84.5 nM
- IC50 (curve of first compound, second compound 0.00949 µM): 36.1 nM
- IC50 (curve of first compound, second compound 0.03 µM): 8.39 nM
- IC50 (curve of first compound, second compound 0.0949 µM): < 3.16 nM
- IC50 (curve of first compound, second compound 0.3 µM): < 3.16 nM
Compound: O=C(c1ccc(F)c(F)c1Nc1ccc(I)cc1F)N1CC(O)([C@@H]2CCCCN2)C1 + CCn1c(-c2cc(N3CCN(C)CC3)cnc2C(C)OC)c2c3cc(ccc31)-c1csc(n1)CC(NC(=O)C1CC1C)C(=O)N1CCCC(N1)C(=O)OCC(C)(C)C2
- viability, T/C (second compound 0.000949 µM, first compound 0.00316 µM): 96%
- viability, T/C (second compound 0.000949 µM, first compound 0.01 µM): 91%
- viability, T/C (second compound 0.000949 µM, first compound 0.0316 µM): 72.6%
- viability, T/C (second compound 0.000949 µM, first compound 0.1 µM): 58.3%
- viability, T/C (second compound 0.000949 µM, first compound 0.316 µM): 31.8%
- viability, T/C (second compound 0.000949 µM, first compound 1 µM): 19.9%
- viability, T/C (second compound 0.003 µM, first compound 0.00316 µM): 97.5%
- viability, T/C (second compound 0.003 µM, first compound 0.01 µM): 83.3%
- viability, T/C (second compound 0.003 µM, first compound 0.0316 µM): 70.5%
- viability, T/C (second compound 0.003 µM, first compound 0.1 µM): 46%
- viability, T/C (second compound 0.003 µM, first compound 0.316 µM): 29.1%
- viability, T/C (second compound 0.003 µM, first compound 1 µM): 19.3%
- viability, T/C (second compound 0.00949 µM, first compound 0.00316 µM): 80.9%
- viability, T/C (second compound 0.00949 µM, first compound 0.01 µM): 69.2%
- viability, T/C (second compound 0.00949 µM, first compound 0.0316 µM): 50.1%
- viability, T/C (second compound 0.00949 µM, first compound 0.1 µM): 38%
- viability, T/C (second compound 0.00949 µM, first compound 0.316 µM): 24.1%
- viability, T/C (second compound 0.00949 µM, first compound 1 µM): 18.7%
- viability, T/C (second compound 0.03 µM, first compound 0.00316 µM): 63.6%
- viability, T/C (second compound 0.03 µM, first compound 0.01 µM): 45.8%
- viability, T/C (second compound 0.03 µM, first compound 0.0316 µM): 36.9%
- viability, T/C (second compound 0.03 µM, first compound 0.1 µM): 30.1%
- viability, T/C (second compound 0.03 µM, first compound 0.316 µM): 19.7%
- viability, T/C (second compound 0.03 µM, first compound 1 µM): 18.6%
- viability, T/C (second compound 0.0949 µM, first compound 0.00316 µM): 35%
- viability, T/C (second compound 0.0949 µM, first compound 0.01 µM): 33.2%
- viability, T/C (second compound 0.0949 µM, first compound 0.0316 µM): 30.3%
- viability, T/C (second compound 0.0949 µM, first compound 0.1 µM): 18.4%
- viability, T/C (second compound 0.0949 µM, first compound 0.316 µM): 17.9%
- viability, T/C (second compound 0.0949 µM, first compound 1 µM): 18.8%
- viability, T/C (second compound 0.3 µM, first compound 0.00316 µM): 28.3%
- viability, T/C (second compound 0.3 µM, first compound 0.01 µM): 26.1%
- viability, T/C (second compound 0.3 µM, first compound 0.0316 µM): 20.1%
- viability, T/C (second compound 0.3 µM, first compound 0.1 µM): 16.9%
- viability, T/C (second compound 0.3 µM, first compound 0.316 µM): 18.4%
- viability, T/C (second compound 0.3 µM, first compound 1 µM): 17%

- IC50 (curve of first compound, second compound 0.0316 µM): 3290 nM
- IC50 (curve of first compound, second compound 0.1 µM): 2310 nM
- IC50 (curve of first compound, second compound 0.316 µM): 2580 nM
- IC50 (curve of first compound, second compound 1 µM): 2490 nM
- IC50 (curve of first compound, second compound 3.16 µM): 1930 nM
- IC50 (curve of first compound, second compound 10 µM): 1320 nM
Compound: CCC(CC)c1cc(NC2CCC(N)C2)n2nccc2n1 (stereo unspecified) + C#Cc1c(F)ccc2cc(O)cc(-c3ncc4c(N5CC6CCC(C5)N6)nc(OCC56CCCN5CC(F)C6)nc4c3F)c12
- viability, T/C (second compound 0.0316 µM, first compound 0.0316 µM): 98.2%
- viability, T/C (second compound 0.0316 µM, first compound 0.1 µM): 97.2%
- viability, T/C (second compound 0.0316 µM, first compound 0.316 µM): 109%
- viability, T/C (second compound 0.0316 µM, first compound 1 µM): 101%
- viability, T/C (second compound 0.0316 µM, first compound 3.16 µM): 50.7%
- viability, T/C (second compound 0.0316 µM, first compound 10 µM): 32.1%
- viability, T/C (second compound 0.1 µM, first compound 0.0316 µM): 98.2%
- viability, T/C (second compound 0.1 µM, first compound 0.1 µM): 99.1%
- viability, T/C (second compound 0.1 µM, first compound 0.316 µM): 102%
- viability, T/C (second compound 0.1 µM, first compound 1 µM): 94.7%
- viability, T/C (second compound 0.1 µM, first compound 3.16 µM): 33.4%
- viability, T/C (second compound 0.1 µM, first compound 10 µM): 30.8%
- viability, T/C (second compound 0.316 µM, first compound 0.0316 µM): 102%
- viability, T/C (second compound 0.316 µM, first compound 0.1 µM): 98%
- viability, T/C (second compound 0.316 µM, first compound 0.316 µM): 83.1%
- viability, T/C (second compound 0.316 µM, first compound 1 µM): 96.7%
- viability, T/C (second compound 0.316 µM, first compound 3.16 µM): 40.3%
- viability, T/C (second compound 0.316 µM, first compound 10 µM): 27.3%
- viability, T/C (second compound 1 µM, first compound 0.0316 µM): 82.5%
- viability, T/C (second compound 1 µM, first compound 0.1 µM): 83.3%
- viability, T/C (second compound 1 µM, first compound 0.316 µM): 68.8%
- viability, T/C (second compound 1 µM, first compound 1 µM): 86.8%
- viability, T/C (second compound 1 µM, first compound 3.16 µM): 42%
- viability, T/C (second compound 1 µM, first compound 10 µM): 24.2%
- viability, T/C (second compound 3.16 µM, first compound 0.0316 µM): 73.9%
- viability, T/C (second compound 3.16 µM, first compound 0.1 µM): 69.7%
- viability, T/C (second compound 3.16 µM, first compound 0.316 µM): 66.3%
- viability, T/C (second compound 3.16 µM, first compound 1 µM): 78.8%
- viability, T/C (second compound 3.16 µM, first compound 3.16 µM): 33.2%
- viability, T/C (second compound 3.16 µM, first compound 10 µM): 20.8%
- viability, T/C (second compound 10 µM, first compound 0.0316 µM): 64.1%
- viability, T/C (second compound 10 µM, first compound 0.1 µM): 65.6%
- viability, T/C (second compound 10 µM, first compound 0.316 µM): 66.4%
- viability, T/C (second compound 10 µM, first compound 1 µM): 60.4%
- viability, T/C (second compound 10 µM, first compound 3.16 µM): 16.9%
- viability, T/C (second compound 10 µM, first compound 10 µM): 15.5%

- IC50 (compound alone, run of 09/09/2024): > 10000 nM
Compound: C#Cc1c(F)ccc2cc(O)cc(-c3ncc4c(N5CC6CCC(C5)N6)nc(OCC56CCCN5CC(F)C6)nc4c3F)c12 (stereo unspecified)
- viability, T/C (compound 0.0316 µM): 84.2% [middle of 8 runs]
- viability, T/C (compound 0.1 µM): 75.7% [middle of 8 runs]
- viability, T/C (compound 0.316 µM): 95.4% [middle of 8 runs]
- viability, T/C (compound 1 µM): 93.8% [middle of 8 runs]
- viability, T/C (compound 3.16 µM): 87.3% [middle of 7 runs]
- viability, T/C (compound 10 µM): 70.4% [middle of 8 runs]
